In one test the target is T1, TYK2 (Homo sapiens, UniProt P29597).
T1 construct: made in house
As to the kind of experiment: Competition binding assay, TYK2. The source says: (§1) Determination of Binding Constants (Kd) of the Compounds Against JAK Kinases
(§2) Competition binding assays used herein were developed, validated and performed as described in Fabian et al., Nature Biotechnology 2005, 23,329-336. Kinases were produced as fusions to T7 phage (See, Fabian et al. or WO04/015142) or alternatively, the kinases were expressed in HEK-293 cells and subsequently tagged with DNA for PCR detection (See, WO08/005,310). For the binding assays, streptavidin-coated magnetic beads were treated with biotinylated affinity ligands for 30 min at rt to generate affinity resins. The liganded beads were blocked with excess biotin and washed with blocking buffer (SeaBlock (Pierce), 1% BSA, 0.05% Tween 20, 1 mM DTT) to remove unbound ligand and to reduce non-specific binding. Binding reactions were assembled by combining kinase, liganded affinity beads, and test compounds in 1× binding buffer (20% SeaBlock, 0.17×PBS, 0.05% Tween 20, 6 mM DTT). Test compounds were prepared as 100× stocks in DMSO and rapidly diluted into the aqueous environment. DMSO was added to control assays lacking a test compound. Primary screen interactions were performed in polypropylene 384-well plates in a final volume of 34 μL, while Kd determinations were performed in polystyrene 96-well plates in a final volume of 135 μL. The assay plates were incubated at room temperature with shaking for 1 hour, long enough for binding reactions to reach equilibrium, and the affinity beads were washed extensively with wash buffer (1×PBS, 0.05% Tween 20) to remove unbound protein. The beads were then resuspended in elution buffer (1×PBS, 0.05% Tween 20, 2 μM non-biotinylated affinity ligand) and incubated at room temperature with shaking for 30 min. The kinase concentration in the eluates was measured by quantitative PCR. Each kinase was tested individually against each compound. Kds were determined using eleven serial threefold dilutions. A selectivity score, which is a quantitative measure of selectivity of a compound against a panel of enzymes, may be calculated for a compound by dividing the number of enzymes for which a compound meets a set criteria, (for example, a binding constant of 100 nM or less), by the total number of enzymes tested.

For a further test, the target named is T2, JAK2 (Homo sapiens, UniProt O60674).
T2 construct: made in house
T2 sequence (O60674 whole entry): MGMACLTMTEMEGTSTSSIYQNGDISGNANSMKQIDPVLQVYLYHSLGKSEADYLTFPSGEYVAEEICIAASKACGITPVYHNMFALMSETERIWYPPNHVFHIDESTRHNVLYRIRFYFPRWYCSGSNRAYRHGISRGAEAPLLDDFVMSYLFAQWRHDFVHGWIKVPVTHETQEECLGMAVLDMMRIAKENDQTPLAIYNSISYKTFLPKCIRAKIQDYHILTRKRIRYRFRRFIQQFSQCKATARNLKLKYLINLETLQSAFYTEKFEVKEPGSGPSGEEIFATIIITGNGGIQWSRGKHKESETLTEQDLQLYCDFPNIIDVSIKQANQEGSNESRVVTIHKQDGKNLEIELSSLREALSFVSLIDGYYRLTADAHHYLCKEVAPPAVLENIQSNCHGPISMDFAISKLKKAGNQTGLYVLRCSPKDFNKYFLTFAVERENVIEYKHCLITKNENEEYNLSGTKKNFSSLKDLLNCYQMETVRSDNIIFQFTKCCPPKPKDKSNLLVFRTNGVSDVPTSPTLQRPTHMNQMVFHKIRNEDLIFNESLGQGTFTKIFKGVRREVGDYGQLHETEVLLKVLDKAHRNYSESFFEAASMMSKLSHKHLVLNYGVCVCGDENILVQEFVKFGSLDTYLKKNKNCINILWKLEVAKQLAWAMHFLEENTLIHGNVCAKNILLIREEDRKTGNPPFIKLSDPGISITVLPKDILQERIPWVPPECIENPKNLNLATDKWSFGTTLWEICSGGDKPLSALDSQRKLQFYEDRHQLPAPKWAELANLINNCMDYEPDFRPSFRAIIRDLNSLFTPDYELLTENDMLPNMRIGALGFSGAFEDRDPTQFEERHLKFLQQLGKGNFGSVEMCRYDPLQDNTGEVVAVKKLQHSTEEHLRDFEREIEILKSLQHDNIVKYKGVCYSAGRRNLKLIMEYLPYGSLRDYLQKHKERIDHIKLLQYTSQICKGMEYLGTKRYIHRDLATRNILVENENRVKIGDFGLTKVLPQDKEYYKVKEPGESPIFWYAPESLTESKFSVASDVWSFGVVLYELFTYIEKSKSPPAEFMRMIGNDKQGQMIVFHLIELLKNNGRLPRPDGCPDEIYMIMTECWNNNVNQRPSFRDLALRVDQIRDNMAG
Briefly: Competition binding assay, JAK2.
Excerpt: as §1, §2

A further test addresses T3, JAK3 (Homo sapiens, UniProt P52333).
T3 construct: made in house
T3 sequence (P52333 1-1124): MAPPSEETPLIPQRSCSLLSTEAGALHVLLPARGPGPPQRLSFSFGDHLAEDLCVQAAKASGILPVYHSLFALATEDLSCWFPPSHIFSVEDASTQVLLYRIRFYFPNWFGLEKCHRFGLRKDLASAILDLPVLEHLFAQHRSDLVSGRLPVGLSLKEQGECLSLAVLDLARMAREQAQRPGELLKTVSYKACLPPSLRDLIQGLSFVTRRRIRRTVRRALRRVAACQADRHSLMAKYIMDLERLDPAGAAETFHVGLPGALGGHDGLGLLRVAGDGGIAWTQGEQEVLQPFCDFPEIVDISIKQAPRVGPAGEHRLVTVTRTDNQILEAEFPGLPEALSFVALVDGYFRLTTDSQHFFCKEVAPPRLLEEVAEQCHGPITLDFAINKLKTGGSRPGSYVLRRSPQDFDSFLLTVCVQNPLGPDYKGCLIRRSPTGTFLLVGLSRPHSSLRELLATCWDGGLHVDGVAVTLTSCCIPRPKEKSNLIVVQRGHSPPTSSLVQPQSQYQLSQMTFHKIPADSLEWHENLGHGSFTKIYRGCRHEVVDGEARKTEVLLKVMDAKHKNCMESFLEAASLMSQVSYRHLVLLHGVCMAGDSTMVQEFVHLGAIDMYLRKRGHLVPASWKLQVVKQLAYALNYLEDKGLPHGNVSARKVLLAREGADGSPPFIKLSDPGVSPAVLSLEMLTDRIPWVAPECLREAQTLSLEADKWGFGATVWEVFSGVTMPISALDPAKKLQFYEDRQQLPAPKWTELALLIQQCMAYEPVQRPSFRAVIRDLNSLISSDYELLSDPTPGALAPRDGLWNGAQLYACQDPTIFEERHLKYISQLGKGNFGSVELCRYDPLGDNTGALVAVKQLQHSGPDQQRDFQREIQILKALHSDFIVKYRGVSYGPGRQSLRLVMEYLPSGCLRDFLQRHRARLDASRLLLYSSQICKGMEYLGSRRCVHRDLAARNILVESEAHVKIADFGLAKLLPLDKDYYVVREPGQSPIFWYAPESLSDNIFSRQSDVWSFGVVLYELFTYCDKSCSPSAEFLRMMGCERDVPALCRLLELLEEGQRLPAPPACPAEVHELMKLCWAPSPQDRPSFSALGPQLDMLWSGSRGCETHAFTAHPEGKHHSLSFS
Briefly: Competition binding assay, JAK3.
Excerpt: as §1, §2

The subject of test [1] is GM-CSFR/JAK2/STAT5 pathway in CSTF-1 cells. As to the kind of experiment: CSTF-1 cell-based reporter assay (beta-lactamase, GM-CSF stimulated). Conditions: Homo sapiens; GM-CSF at 2 ng/mL, 4 hours; read-out: Cell Assay: CS TF-1 reporter assay IC50. On the procedure: CSTF-1 Cell-Based Reporter Assay
CSTF-1 cells are derived from the human erythroleukemia cell line that is growth dependent on GM-CSF and has an intact GM-CSFR/JAK2/STAT5 pathway. The cell line contains stably integrated beta-lactamase reporter gene under the control of the […] (irf 1) response element recognized by the activated transcription factor STATS. csTF-1 cells (Invitrogen K1219) were washed with assay media (97% OPTIMEM/0.5% dialyzed FBS/0.1 mM NEAA/1 mM Na pyr/P/S) and seeded in the same media at 5×10^5 cell/mL in T150 flask. After 16 hour incubation, cells were seeded at 2×10^5 cell/well in 50 μl volume, into Costar, clear bottom, 96-well assay plates. Serial dilutions of compounds were added to the plates with final DMSO concentration at 0.5% and GM-CSF at 2 ng/mL and the plates were then incubated at […] and 5% CO2 for 4 hours. The plates were brought to room temperature before adding Substrate Mixture according to manufacturer's protocol (Invitrogen, Catalog #K1085). The assay plates containing the substrate mixture were incubated in the dark at room temperature for 2 hours. Blue and green fluorescence was measured with excitation at 409 nm and emission at 460 nm (for blue) and excitation at 409 nm and emission at 530 nm (for green) using Spectra Max Gemini EM.
For orientation: In a reporter assay the amount or activity of a reporter protein is the signal.

The subject of test [2] is panel of distinct kinases excluding mutant variants, typically 359 or 386 kinases. Briefly: Kinase selectivity score S10 from binding panel. The settings on record: compound at 10 μM; fraction of kinases with inhibition of 90% or greater. On the procedure:
as §2

A value given as a limit tells only on which side of the number the result lay.

One may read the Kd as the equilibrium constant for the complex coming apart. Low readings indicate a tighter complex, high ones a looser complex. Usually IC50 stands for the concentration at which inhibition is half-maximal.

T1 sequence (P29597 whole entry): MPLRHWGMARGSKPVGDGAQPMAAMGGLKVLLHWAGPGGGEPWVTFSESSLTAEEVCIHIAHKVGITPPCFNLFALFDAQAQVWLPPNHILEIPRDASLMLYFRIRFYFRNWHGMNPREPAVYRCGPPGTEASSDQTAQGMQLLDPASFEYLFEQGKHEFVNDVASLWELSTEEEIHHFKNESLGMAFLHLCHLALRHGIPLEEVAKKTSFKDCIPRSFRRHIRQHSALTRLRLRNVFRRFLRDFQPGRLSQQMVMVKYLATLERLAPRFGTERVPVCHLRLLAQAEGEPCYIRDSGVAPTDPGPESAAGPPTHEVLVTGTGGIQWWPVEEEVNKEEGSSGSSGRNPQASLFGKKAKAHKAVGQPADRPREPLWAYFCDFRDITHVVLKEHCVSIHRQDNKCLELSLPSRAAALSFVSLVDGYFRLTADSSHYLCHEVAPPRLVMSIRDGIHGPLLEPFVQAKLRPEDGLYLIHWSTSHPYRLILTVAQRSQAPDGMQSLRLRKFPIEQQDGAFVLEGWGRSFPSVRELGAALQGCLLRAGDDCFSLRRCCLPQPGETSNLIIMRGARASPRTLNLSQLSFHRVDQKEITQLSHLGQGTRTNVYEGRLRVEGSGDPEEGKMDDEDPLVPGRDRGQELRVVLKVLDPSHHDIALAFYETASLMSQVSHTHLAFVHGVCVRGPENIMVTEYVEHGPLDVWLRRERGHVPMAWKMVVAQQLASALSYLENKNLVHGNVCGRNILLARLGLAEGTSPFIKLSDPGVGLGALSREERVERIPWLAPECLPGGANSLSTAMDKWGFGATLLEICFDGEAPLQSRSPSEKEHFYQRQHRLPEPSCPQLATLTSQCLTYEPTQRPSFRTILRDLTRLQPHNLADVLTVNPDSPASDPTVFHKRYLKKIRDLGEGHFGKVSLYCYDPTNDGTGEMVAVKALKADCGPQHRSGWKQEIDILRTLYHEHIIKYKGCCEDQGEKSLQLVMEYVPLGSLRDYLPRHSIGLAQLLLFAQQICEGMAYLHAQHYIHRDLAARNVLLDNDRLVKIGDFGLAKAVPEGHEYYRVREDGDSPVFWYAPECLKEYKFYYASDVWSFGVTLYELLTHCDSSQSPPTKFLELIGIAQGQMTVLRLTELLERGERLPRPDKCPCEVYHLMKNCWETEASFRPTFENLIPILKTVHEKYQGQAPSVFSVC

With `Cc1cc(Nc2nc([C@]3(c4ccc(F)cc4)C[C@H](O)C3)nc3ccccc23)n[nH]1` [Example 1, (1S,3S)-3-(4-fluorophenyl)-3-(4-(5-methyl-1H-pyrazol-3-ylamino)quinazolin-2-yl)cyclobutanol], the Kd is 10 to 100 nM on TYK2, ≤ 1 nM at JAK2 and 10 to 100 nM on JAK3. In addition, the IC50 in test [1] was in the range of 100 to 500 nM. In addition, the “S-Score: S(10) at 10 μM” value in test [2] is on record as “A (A≦0.3)”.
On to `Cc1cc(Nc2nc([C@]3(c4ccc(F)cc4)C[C@@H](F)C3)nc3ccccc23)n[nH]1` [Example 2, 2-((1R,3R)-3-fluoro-1-(4-fluorophenyl)cyclobutyl)-N-(5-methyl-1H-pyrazol-3-yl)quinazolin-4-amine], for which the Kd is 10 to 100 nM at TYK2, 1 to 10 nM at JAK2 and 10 to 100 nM on JAK3. Further, the IC50 in test [1] was > 500 nM. For the same compound, the “S-Score: S(10) at 10 μM” value in test [2] is listed as “A (A≦0.3)”.
With `Cc1cc(Nc2nc([C@]3(c4ccc(F)cc4)C[C@@H](O)C3)nc3ccccc23)n[nH]1` [Example 3, (1R,3R)-3-(4-fluorophenyl)-3-(4-((5-methyl-1H-pyrazol-3-yl)amino)quinazolin-2-yl)cyclobutanol], the Kd was 10 to 100 nM at TYK2, ≤ 1 nM at JAK2 and 10 to 100 nM at JAK3. The IC50 in test [1] was 100 to 500 nM. Besides, the “S-Score: S(10) at 10 μM” value in test [2] is on record as “A (A≦0.3)”.
Turning to `Cc1cc(Nc2nc(C3(c4ccc(F)cc4)CCOCC3)nc3ccccc23)n[nH]1` [Example 4, 2-(4-(4-fluorophenyl)tetrahydro-2H-pyran-4-yl)-N-(5-methyl-1H-pyrazol-3-yl)quinazolin-4-amine], the Kd at TYK2 is ≤ 10 nM; on JAK2, 1 to 10 nM; at JAK3, 10 to 100 nM. Further, the concentration for half-maximal inhibition (IC50) in test [1] is 100 to 500 nM. The “S-Score: S(10) at 10 μM” value in test [2] was “A (A≦0.3)”.

Values taken from patent US20130225615A1, “2-CYCLOQUINAZOLINE DERIVATIVES AND METHODS OF USE THEREOF” (AMBIT BIOSCIENCES CORPORATION, priority 2010, published 2013).
